Converted amounts (≈) assume the structure as drawn.
Key:
[1] = Spontaneous hydrolysis rate of substrates (stability); format: physicochemical; conditions: room temperature; normalized to 10 μg/ml starting concentration of substrate
Protocol: (§1) Table 1 gives the absorbance wavelength maximum (λmax) for the substrate and the reaction product, the molar extinction coefficient ε for the substrate and the reaction product, the solubility, and the spontaneous hydrolysis rate of the new substrates (stability). ONPG, the standard β-galactosidase substrate, is listed for comparision.
*Hydrolysis is measured at room temperature. Results are normalized to 10
μg/ml starting concentration of substrate.

[2] = Solubility of substrates; format: physicochemical
Text: as §1

[3] = Absorbance wavelength maximum and molar extinction coefficient of substrate and reaction product; format: physicochemical; conditions: for Product λmax / Product ε: reaction product; for Product ε / Substrate ε: molar extinction coefficient
Text: as §1

[4] = biological target: β-galactosidase (Escherichia coli, UniProt P00722); assay: Kinetic properties of substrates with β-galactosidase; format: biochemical; conditions: for Vm Ratio to ONPG: relative to ONPG; for Km: four or five substrate concentrations
Protocol: (§2) The ability of the subject compounds to act as substrates for β-galactosidase and ED28-digoxigenin+EA was measured and compared with the results obtained with ONPG. ED28-digoxigenin+EA are a β-galactosidase α fragment-digoxigenin conjugate and the α complementation acceptor, respectively. ED28-digoxigenin consists of β-galactosidase amino acids 1-46, with cysteines at positions 1 and 46, and digoxgenin conjugated to the cysteines. Assays involving ED and EA are described in greater detail in U.S. Pat. No. 4,708,929. E28-digoxigenin and EA are usually components of a CEDIA™ assay; however, in this set of experiments, antibodies are not present. Four or five substrate concentrations were used to obtain the results. The turnover figures are given for EA+ED28-digoxigenin, not β-galactosidase.

[5] = tested on: EA + ED28-digoxigenin; assay: Kinetic properties of substrates with EA + ED28-digoxigenin; format: biochemical; conditions: for Km / Vm Ratio to ONPG: no antibodies; for Km: four or five substrate concentrations; for Vm Ratio to ONPG / Turnover % ONPG: relative to ONPG
Protocol: as §2

[6] = tested on: β-galactosidase; assay: CEDIA digoxin assay with new substrates; format: biochemical; conditions: relative to OCNPG, [Substrate]/Km 4.0x; for % Open: absence of antibody; for % Inhib: inhibitory antibody; for High calib % Mod / High calib % Net: saturating analyte
Text: (§3) β-galactosidase-analyte conjugates may be used in a variety of diagnostic assays. The subject compounds may be used in conjunction with these assays. Such assays may be used to determine the presence and/or concentration of various compounds, including specific proteins, carbohydrates, and polynucleotides. The assays may be heterogenous, including ELISA assays. In particular the subject compounds may be employed in CEDIA™ assays. CEDIA™ assays measure the amount of an analyte by means of the ability of the analyte to affect the observed enzyme activity when employing an anti-analyte antibody binding reaction to a β-galactosidase α complementing fragment conjugated to analyte or cross reactive compound. In the absence of free analyte, the observed β-galactosidase activity is lower. Thus in CEDIA™ assays β-galactosidase activity increases as the amount of analyte increases. CEDIA™ assays make use of the α complementation phenomenon between ED and EA as described in detail in U.S. Pat. No. 4,708,929.
(§4) The ability of the new substrates to function in CEDIA™ assays was tested. All values are relative to reaction rates using OCNPG (o-chloro-nitrophenyl-β-D-galactopyranoside). […] CEDIA™ assays for T3 (the thyroid hormone, triiodothyronine), digoxin, and folate were performed.
(§5) The terms in table 3 are defined as follows. [Substrate]/Km is the ratio of the concentation of substrate used in the assay to the Km of the enzyme for that substrate. The %open, %inhibition, %mod, and %net figures are all given relative to the results obtained with OCNPG.
(§6) %Open is the reaction rate in the absence of antibody. The figure given in table 3 is the reaction rate relative to the reaction rate obtained with OCNPG.
(§7) %Inhibition is defined as the difference between the reaction rate rate in the absence of antibody and the reaction rate in the presence of the inhibitory antibody found in the CEDIA™ assays, divided by the reaction rate in the absence of antibody. The figures given in table 3 are relative to the % inhibition figure obtained with OCNPG as substrate.
(§8) %Net is defined as the difference between the reaction rate of a CEDIA™ assay using the test substrate in the absence of analyte and presence of antibody and the same reaction in the presence of a saturating amount of analyte (i.e. maximum attainable reaction rate) and presence of antibody, divided by the difference between the reaction rate using OCNPG in the absence of analyte and presence of antibody, and the reaction rate with OCNPG using a saturating amount of analyte and presence of antibody.
(§9) %Mod is defined as the difference between the reaction rate of a CEDIA™ assay in the absence of analyte and presence of antibody and the same reaction in the presence of a saturating amount of analyte (i.e., maximum attainable reaction rate) and presence of antibody, divided by the same figure obtained for the reaction rate in the presence of a saturating amount analyte. The greater the %mod, the greater the range of analyte concentrations over which the assay will be effective. The figure given in Table 3 is the mod figure obtained for the new subtrate, divided by the %mod figure divided %mod figure obtained for OCNPG.

[7] = tested on: β-galactosidase; assay: CEDIA folate assay with new substrates; format: biochemical; conditions: relative to OCNPG, [Substrate]/Km: DNPG 3.2x, m-CN-NPG 2.5x, NGPG 3.2x; for % Open: absence of antibody; for % Inhib: inhibitory antibody; for High calib % Mod / High calib % Net: saturating analyte
Text: as §3, §4, §5, §6, §7, §8, §9

[8] = tested on: β-galactosidase; assay: CEDIA T3 assay with new substrates; format: biochemical; conditions: for % Open / % Inhib / High calib % Mod / High calib % Net: T3 assay, relative to OCNPG, [Substrate]/Km: DNPG 3.3x, m-CN-NPG 4.1x, NGPG 2.0x; for % Open: absence of antibody; for % Inhib: inhibitory antibody; for High calib % Mod / High calib % Net: saturating analyte
Text: as §3, §4, §5, §6, §7, §8, §9

[9] = tested on: β-galactosidase; assay: CEDIA assays (T3, digoxin and folate), overall; format: biochemical
Text: as §3, §4
The terms in table 3 are defined as follows. […]

β-galactosidase (Escherichia coli, UniProt P00722), sequence (P00722 2-1024): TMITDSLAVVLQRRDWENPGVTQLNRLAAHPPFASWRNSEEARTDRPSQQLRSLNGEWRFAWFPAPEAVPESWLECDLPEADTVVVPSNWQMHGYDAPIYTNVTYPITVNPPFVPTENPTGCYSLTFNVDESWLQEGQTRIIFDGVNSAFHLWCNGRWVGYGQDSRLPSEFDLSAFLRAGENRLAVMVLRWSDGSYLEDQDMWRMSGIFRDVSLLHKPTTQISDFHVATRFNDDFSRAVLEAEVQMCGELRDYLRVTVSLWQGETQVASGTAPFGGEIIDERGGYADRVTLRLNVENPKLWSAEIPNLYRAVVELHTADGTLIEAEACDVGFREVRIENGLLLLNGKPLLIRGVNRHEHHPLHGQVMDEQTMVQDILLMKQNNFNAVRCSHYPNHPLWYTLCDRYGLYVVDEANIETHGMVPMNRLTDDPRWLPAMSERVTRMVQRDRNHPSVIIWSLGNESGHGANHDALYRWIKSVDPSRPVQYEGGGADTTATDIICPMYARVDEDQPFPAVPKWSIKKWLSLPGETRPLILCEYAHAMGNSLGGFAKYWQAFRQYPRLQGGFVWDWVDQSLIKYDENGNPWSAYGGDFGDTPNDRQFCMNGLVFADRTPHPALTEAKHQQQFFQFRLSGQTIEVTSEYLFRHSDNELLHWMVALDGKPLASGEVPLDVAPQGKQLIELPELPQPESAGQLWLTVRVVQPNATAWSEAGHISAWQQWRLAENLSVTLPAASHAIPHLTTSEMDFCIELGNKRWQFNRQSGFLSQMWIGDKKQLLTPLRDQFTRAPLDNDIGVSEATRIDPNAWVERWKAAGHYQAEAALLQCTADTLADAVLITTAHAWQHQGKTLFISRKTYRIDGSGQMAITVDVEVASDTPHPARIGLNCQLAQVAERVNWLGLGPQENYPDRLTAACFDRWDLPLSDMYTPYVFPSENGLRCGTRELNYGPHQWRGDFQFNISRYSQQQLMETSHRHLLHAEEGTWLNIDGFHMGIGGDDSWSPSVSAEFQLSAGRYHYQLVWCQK

SMILES	Hydrolysis [1]	Solubility [2]	Product λmax [3]	Product ε [3]	Substrate λmax [3]	Substrate ε [3]	Vm Ratio to ONPG [4]	Km [5]	Vm Ratio to ONPG [5]	Turnover % ONPG [5]	% Open [6]	% Inhib [6]	High calib % Mod [6]	High calib % Net [6]	% Open [7]	% Inhib [7]	High calib % Mod [7]	High calib % Net [7]	% Open [8]	% Inhib [8]	further results
O=[N+]([O-])c1ccc(O[C@@H]2O[C@H](CO)[C@H](O)[C@H](O)[C@H]2O)cc1[N+](=O)[O-] [3,4 DNPG, 3,4-Dinitrophenyl-β-D-galactopyranoside]	6 mA/Day	3.0 mg/mL (≈ 8.66 mM)	400 nm	12400 OD/M	280 nm	6000 OD/M	3.5	0.19 mg/mL	2.8	70%	92%	74%	85%	72%	72%	77%	76%	58%	73%	93%	High calib % Mod [8]: 88%; High calib % Net [8]: 71%
COc1cc([N+](=O)[O-])ccc1O[C@@H]1O[C@H](CO)[C@H](O)[C@H](O)[C@H]1O [NGPG, o-Methoxy-p-nitrophenyl-β-D-galactopyranoside]	1 mA/Day	1.0 mg/mL (≈ 3.02 mM)	430 nm	17600 OD/M	298 nm	7400 OD/M	3.7	0.28 mg/mL	3.6	56%	81%	98%	85%	72%	85%	104%	102%	84%	41%	87%	affinity compared with ONPG (in words) [4]: somewhat lower affinity than ONPG; affinity compared with ONPG (in words) [5]: somewhat lower affinity than ONPG; High calib % Mod [8]: 82%; High calib % Net [8]: 37%
O=Cc1cc([N+](=O)[O-])ccc1O[C@@H]1O[C@H](CO)[C@H](O)[C@H](O)[C@H]1O [NSPG]	19 mA/Day	< 40.0 mg/mL	382 nm	16500 OD/M	298 nm	14900 OD/M	3.2	0.14 mg/mL	3.0	54%	–	–	–	–	–	–	–	–	–	–	solubility (in words) [2]: high aqueous solubility; Km [4]: 334 µM
O=[N+]([O-])c1ccccc1O[C@@H]1O[C@H](CO)[C@H](O)[C@H](O)[C@H]1O [ONPG, o-nitrophenyl-β-D-galactopyranoside, reference compound]	0.4 mA/Day	10.0 mg/mL (≈ 33.2 mM)	414 nm	3000 OD/M	315 nm	2000 OD/M	1.0	0.15 mg/mL	1.0	100%	–	–	–	–	–	–	–	–	–	–	Km [4]: 266 µM; signal in CEDIA assays (in words) [9]: exceptionally weak signal
N#Cc1cc(O[C@@H]2O[C@H](CO)[C@H](O)[C@H](O)[C@H]2O)ccc1[N+](=O)[O-] [m-CN-NPG, m-Cyano-p-nitrophenyl-β-D-galactopyranoside]	5 mA/Day	< 8.0 mg/mL	405 nm	17000 OD/M	308 nm	9200 OD/M	3.0	0.14 mg/mL	2.4	44%	82%	91%	85%	71%	62%	93%	103%	72%	71%	100%	High calib % Mod [8]: 100%; High calib % Net [8]: 63%; T3 assay results on increasing substrate concentration (in words) ([8]; substrate increased from 2.7×Km to 4.1×Km): improved

Source: US5444161A, “Substrates for β-galactosidase” (Microgenics Corporation, priority 1989, dated 1995)
